Source: patent publication US20230143604A1, “QW DOSING OF GIP RECEPTOR AGONIST PEPTIDE COMPOUNDS AND USES THEREOF” (TAKEDA PHARMACEUTICAL COMPANY LIMITED, priority 2020, published 2023)
Starred links: 1 amine or outer side, 2 acyl side, 3 side chain; linkers in the order of their positions; H or OH if unused. Non-standard residues stand in square brackets, D forms with d. Residues, ends and D or L forms follow the SMILES beside them. Groups on a side chain read outwards from the residue. *: point of attachment. C18 diacid = O=C(O)CCCCCCCCCCCCCCCCC(=O)*; C17 diacid = O=C(O)CCCCCCCCCCCCCCCC(=O)*; γGlu = O=C(O)[C@H](CCC(=O)[*:2])N[*:1]; NMeY = CN[C@@H](Cc1ccc(O)cc1)C(=O)O; AEEA = NCCOCCOCC(=O)O; Aib = CC(C)(N)C(=O)O

Experiment: physchem
How it was run: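 Solubility at pH 7.4 determined by stepwise addition of 200 mM phosphate buffer in 100 μL increments to 3 mg peptide, mixing briefly each time, until no insoluble material remained, then measured by liquid chromatography.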

[1] = pH 7.4, aqueous buffer, pH 7.4 Phosphate Buffer - Solubility, 200 mM Phosphate buffer pH 7.4

| SMILES | solubility (pH 7.4) [mg/mL] | solubility (pH 7.4, aqueous buffer) [mg/mL] | solubility [1] [mg/mL] | solubility (pH 7.4, solubility in phosphate buffer at pH 7.4, 200 mM phosphate buffer pH 7.4) [mg/mL] |
| --- | --- | --- | --- | --- |
| CC[C@H](C)[C@H](NC(=O)[C@H](CO)NC(=O)[C@H](Cc1ccc(O)cc1)NC(=O)[C@H](CC(=O)O)NC(=O)[C@H](CO)NC(=O)[C@@H](NC(=O)[C@H](Cc1ccccc1)NC(=O)[C@@H](NC(=O)CNC(=O)[C@H](CCC(=O)O)NC(=O)C(C)(C)NC(=O)[C@@H](N)Cc1ccc(O)cc1)[C@@H](C)O)[C@@H](C)CC)C(=O)N[C@@H](C)C(=O)NC(C)(C)C(=O)N[C@@H](CC(=O)O)C(=O)N[C@@H](CCCCN)C(=O)N[C@H](C(=O)N[C@@H](CCCCNC(=O)COCCOCCNC(=O)COCCOCCNC(=O)CC[C@H](NC(=O)CCCCCCCCCCCCCCCCC(=O)O)C(=O)O)C(=O)N[C@@H](CCC(N)=O)C(=O)N[C@@H](C)C(=O)N[C@@H](CC(=O)O)C(=O)N[C@@H](Cc1ccccc1)C(=O)N[C@H](C(=O)N[C@@H](CCC(=O)O)C(=O)N[C@@H](Cc1c[nH]c2ccccc12)C(=O)N[C@@H](CC(C)C)C(=O)N[C@@H](CC(C)C)C(=O)N[C@@H](C)C(=O)N[C@@H](CCC(N)=O)C(=O)N[C@@H](CCCNC(=N)N)C(=O)NCC(=O)O)C(C)C)[C@@H](C)CC [Compound 166] (H-Y[Aib]EGTFISDYSIA[Aib]DKIK([AEEA-AEEA-γGlu-C18 diacid])QADFVEWLLAQRG-OH) | ≥ 15 | ≥ 30 |  |  |
| CC[C@H](C)[C@H](NC(=O)[C@H](Cc1ccccc1)NC(=O)[C@@H](NC(=O)CNC(=O)[C@H](CCC(=O)O)NC(=O)C(C)(C)NC(=O)[C@H](Cc1ccc(O)cc1)NC)[C@@H](C)O)C(=O)N[C@@H](CO)C(=O)N[C@@H](CC(=O)O)C(=O)N[C@@H](Cc1ccc(O)cc1)C(=O)N[C@@H](CO)C(=O)N[C@H](C(=O)NC(C)(C)C(=O)N[C@@H](CC(C)C)C(=O)N[C@@H](CC(=O)O)C(=O)N[C@@H](CCCNC(=N)N)C(=O)NC(C)(C)C(=O)N[C@@H](C)C(=O)N[C@@H](CCC(N)=O)C(=O)NC(C)(C)C(=O)N[C@@H](CC(N)=O)C(=O)N[C@@H](Cc1ccccc1)C(=O)N[C@H](C(=O)N[C@@H](CC(N)=O)C(=O)N[C@@H](Cc1c[nH]c2ccccc12)C(=O)N[C@@H](CC(C)C)C(=O)N[C@@H](CC(C)C)C(=O)N[C@@H](C)C(=O)N[C@@H](CCC(N)=O)C(=O)N[C@@H](CCCCNC(=O)COCCOCCNC(=O)COCCOCCNC(=O)CC[C@H](NC(=O)CC[C@H](NC(=O)CCCCCCCCCCCCCCCC(=O)O)C(=O)O)C(=O)O)C(=O)NCC(=O)NCC(=O)NCC(=O)NCC(=O)N[C@@H](CO)C(N)=O)C(C)C)[C@@H](C)CC [Compound 33] (H-[NMeY][Aib]EGTFISDYSI[Aib]LDR[Aib]AQ[Aib]NFVNWLLAQK([AEEA-AEEA-γGlu-γGlu-C17 diacid])GGGGS-NH2) | ≥ 15 | ≥ 30 |  |  |
| CC[C@H](C)[C@H](NC(=O)[C@H](CO)NC(=O)[C@H](Cc1ccc(O)cc1)NC(=O)[C@H](CC(=O)O)NC(=O)[C@H](CO)NC(=O)[C@@H](NC(=O)[C@H](Cc1ccccc1)NC(=O)[C@@H](NC(=O)CNC(=O)[C@H](CCC(=O)O)NC(=O)C(C)(C)NC(=O)[C@H](Cc1ccc(O)cc1)NC)[C@@H](C)O)[C@@H](C)CC)C(=O)N[C@@H](C)C(=O)N[C@@H](CCCCNC(=O)CNC(=O)CNC(=O)CNC(=O)CNC(=O)CNC(=O)CCCCCCCCCCCCCCCCC(=O)O)C(=O)N[C@@H](CC(=O)O)C(=O)N[C@@H](CCCNC(=N)N)C(=O)NC(C)(C)C(=O)N[C@@H](C)C(=O)N[C@@H](CCC(N)=O)C(=O)NC(C)(C)C(=O)N[C@@H](CC(N)=O)C(=O)N[C@@H](Cc1ccccc1)C(=O)N[C@H](C(=O)N[C@@H](CC(N)=O)C(=O)N[C@@H](Cc1c[nH]c2ccccc12)C(=O)N[C@@H](CC(C)C)C(=O)N[C@@H](CC(C)C)C(=O)N[C@@H](C)C(=O)N[C@@H](CCC(N)=O)C(=O)N[C@@H](CO)C(=O)N1CCC[C@H]1C(=O)N[C@@H](CO)C(=O)N[C@@H](CO)C(=O)NCC(=O)N[C@@H](C)C(=O)N1CCC[C@H]1C(=O)N1CCC[C@H]1C(=O)N1CCC[C@H]1C(=O)N[C@@H](CO)C(N)=O)C(C)C [Compound 273] |  |  | ≥ 6 |  |
| CC[C@H](C)[C@H](NC(=O)[C@H](Cc1ccccc1)NC(=O)[C@@H](NC(=O)CNC(=O)[C@H](CCC(=O)O)NC(=O)C(C)(C)NC(=O)[C@H](Cc1ccc(O)cc1)NC)[C@@H](C)O)C(=O)N[C@@H](CO)C(=O)N[C@@H](CC(=O)O)C(=O)N[C@@H](Cc1ccc(O)cc1)C(=O)N[C@@H](CO)C(=O)N[C@H](C(=O)NC(C)(C)C(=O)N[C@@H](CC(C)C)C(=O)N[C@@H](CC(=O)O)C(=O)N[C@@H](CCCNC(=N)N)C(=O)NC(C)(C)C(=O)N[C@@H](C)C(=O)N[C@@H](CCC(N)=O)C(=O)NC(C)(C)C(=O)N[C@@H](CCCCNC(=O)COCCOCCNC(=O)COCCOCCNC(=O)CC[C@H](NC(=O)CC[C@H](NC(=O)CCCCCCCCCCCCCCCC(=O)O)C(=O)O)C(=O)O)C(=O)N[C@@H](Cc1ccccc1)C(=O)N[C@H](C(=O)N[C@@H](CC(N)=O)C(=O)N[C@@H](Cc1c[nH]c2ccccc12)C(=O)N[C@@H](CC(C)C)C(=O)N[C@@H](CC(C)C)C(=O)N[C@@H](C)C(=O)N[C@@H](CCC(N)=O)C(=O)N[C@@H](CCCNC(=N)N)C(=O)NCC(=O)O)C(C)C)[C@@H](C)CC [Compound 127] (H-[NMeY][Aib]EGTFISDYSI[Aib]LDR[Aib]AQ[Aib]K([AEEA-AEEA-γGlu-γGlu-C17 diacid])FVNWLLAQRG-OH) | ≥ 15 | ≥ 30 |  |  |
| CC[C@H](C)[C@H](NC(=O)[C@H](CO)NC(=O)[C@H](Cc1ccc(O)cc1)NC(=O)[C@H](CC(=O)O)NC(=O)[C@H](CO)NC(=O)[C@@H](NC(=O)[C@H](Cc1ccccc1)NC(=O)[C@@H](NC(=O)CNC(=O)[C@H](CCC(=O)O)NC(=O)C(C)(C)NC(=O)[C@@H](N)Cc1ccc(O)cc1)[C@@H](C)O)[C@@H](C)CC)C(=O)N[C@@H](C)C(=O)N[C@@H](CC(C)C)C(=O)N[C@@H](CC(=O)O)C(=O)N[C@@H](CCCCN)C(=O)N[C@@H](C)C(=O)N[C@@H](C)C(=O)N[C@@H](CCC(N)=O)C(=O)NC(C)(C)C(=O)N[C@@H](CCCCNC(=O)COCCOCCNC(=O)COCCOCCNC(=O)CC[C@H](NC(=O)CC[C@H](NC(=O)CCCCCCCCCCCCCCCCC(=O)O)C(=O)O)C(=O)O)C(=O)N[C@@H](Cc1ccccc1)C(=O)N[C@H](C(=O)N[C@@H](CCC(=O)O)C(=O)N[C@@H](Cc1c[nH]c2ccccc12)C(=O)N[C@@H](CC(C)C)C(=O)N[C@@H](CC(C)C)C(=O)N[C@@H](C)C(=O)N[C@@H](CCC(N)=O)C(=O)N[C@@H](CCCNC(=N)N)C(=O)NCC(=O)O)C(C)C [Compound 154] (H-Y[Aib]EGTFISDYSIALDKAAQ[Aib]K([AEEA-AEEA-γGlu-γGlu-C18 diacid])FVEWLLAQRG-OH) | ≥ 15 | ≥ 30 |  |  |
| CC[C@H](C)[C@H](NC(=O)[C@H](CO)NC(=O)[C@H](Cc1ccc(O)cc1)NC(=O)[C@H](CC(=O)O)NC(=O)[C@H](CO)NC(=O)[C@@H](NC(=O)[C@H](Cc1ccccc1)NC(=O)[C@@H](NC(=O)CNC(=O)[C@H](CCC(=O)O)NC(=O)C(C)(C)NC(=O)[C@@H](N)Cc1ccc(O)cc1)[C@@H](C)O)[C@@H](C)CC)C(=O)N[C@@H](C)C(=O)N[C@@H](CC(C)C)C(=O)N[C@@H](CC(=O)O)C(=O)N[C@@H](CCCNC(=N)N)C(=O)N[C@H](C(=O)N[C@@H](Cc1c[nH]cn1)C(=O)N[C@@H](CCC(N)=O)C(=O)N[C@@H](CCC(N)=O)C(=O)N[C@@H](CC(N)=O)C(=O)N[C@@H](Cc1ccccc1)C(=O)N[C@H](C(=O)N[C@@H](CC(N)=O)C(=O)N[C@@H](Cc1c[nH]c2ccccc12)C(=O)N[C@@H](CC(C)C)C(=O)N[C@@H](CC(C)C)C(=O)N[C@@H](C)C(=O)N[C@@H](CCC(N)=O)C(=O)N[C@@H](CCCCNC(=O)COCCOCCNC(=O)COCCOCCNC(=O)CC[C@H](NC(=O)CCCCCCCCCCCCCCCCC(=O)O)C(=O)O)C(=O)O)C(C)C)[C@@H](C)CC [Compound 249] (H-Y[Aib]EGTFISDYSIALDRIHQQNFVNWLLAQK([AEEA-AEEA-γGlu-C18 diacid])-OH; N-terminus and C-terminus assumed) |  | ≥ 6.8 |  |  |
| CC[C@H](C)[C@H](NC(=O)[C@H](CO)NC(=O)[C@H](Cc1ccc(O)cc1)NC(=O)[C@H](CC(=O)O)NC(=O)[C@H](CO)NC(=O)[C@@H](NC(=O)[C@H](Cc1ccccc1)NC(=O)[C@@H](NC(=O)CNC(=O)[C@H](CCC(=O)O)NC(=O)C(C)(C)NC(=O)[C@H](Cc1ccc(O)cc1)NC)[C@@H](C)O)[C@@H](C)CC)C(=O)N[C@@H](C)C(=O)N[C@@H](CC(C)C)C(=O)N[C@@H](CC(=O)O)C(=O)N[C@@H](CCCNC(=N)N)C(=O)NC(C)(C)C(=O)N[C@@H](C)C(=O)N[C@@H](CCC(N)=O)C(=O)NC(C)(C)C(=O)N[C@@H](CCCCNC(=O)COCCOCCNC(=O)COCCOCCNC(=O)CC[C@H](NC(=O)CC[C@H](NC(=O)CCCCCCCCCCCCCCCCC(=O)O)C(=O)O)C(=O)O)C(=O)N[C@@H](Cc1ccccc1)C(=O)N[C@H](C(=O)N[C@@H](CC(N)=O)C(=O)N[C@@H](Cc1c[nH]c2ccccc12)C(=O)N[C@@H](CC(C)C)C(=O)N[C@@H](CC(C)C)C(=O)N[C@@H](C)C(=O)N[C@@H](CCC(N)=O)C(=O)N[C@@H](CO)C(=O)N1CCC[C@H]1C(=O)N[C@@H](CO)C(=O)N[C@@H](CO)C(=O)NCC(=O)N[C@@H](C)C(=O)N1CCC[C@H]1C(=O)N1CCC[C@H]1C(=O)N1CCC[C@H]1C(=O)N[C@@H](CO)C(N)=O)C(C)C [Compound 97] (H-[NMeY][Aib]EGTFISDYSIALDR[Aib]AQ[Aib]K([AEEA-AEEA-γGlu-γGlu-C18 diacid])FVNWLLAQSPSSGAPPPS-NH2) |  |  | ≥ 60 | ≥ 15 |
